Results published in PubChem BioAssay AID256 (DTP/NCI, 2004).
“And” between values parts separate entries of the source, which are not always exact repeats. Identical values can stand only once. Toxic doses and inconclusive results are not listed. Rule for the calls: active = survival T/C of 150% or more; inactive = T/C below 125% in these data.

System: CD2F1 mice, L1210 leukemia ip, survival T/C
Assay: NCI In Vivo Anticancer Drug Screen. Data for tumor model L1210 Leukemia (intraperitoneal) in CD2F1 (CDF1) mice
Details: endpoint: mean survival time, higher = longer survival
Outline: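 Mice carrying a transplanted tumor received test compound or vehicle alone. The value is the measurement in the treated group divided by that in the vehicle-treated control group.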

[1] = dose: 100.0 mg/kg/injection, schedule: Q01DX001 (ip), vehicle: saline with Tween-80
[2] = dose: 100.0 mg/kg/injection, schedule: Q01DX001 (ip), vehicle: saline
[3] = dose: 200.0 mg/kg/injection, schedule: Q01DX001 (ip), vehicle: saline

Measured: T/C

Cc1ccc(S(=O)(=O)NC(=O)NCCC(C)C)cc1
inactive: dose: 100.0 mg/kg/injection, schedule: Q01DX009 (ip), vehicle: saline sonified 104 % of control | dose: 200.0 mg/kg/injection, schedule: Q01DX009 (ip), vehicle: saline sonified 97 % of control | dose: 400.0 mg/kg/injection, schedule: Q01DX009 (ip), vehicle: saline sonified 98 % of control

C=C1CN(C(=O)NCCCl)C1
inactive: [1] 100 % of control | dose: 200.0 mg/kg/injection, schedule: Q01DX001 (ip), vehicle: saline with Tween-80 100 % of control | dose: 400.0 mg/kg/injection, schedule: Q01DX001 (ip), vehicle: saline with Tween-80 97 % of control

O=S(=O)(C1CCCCC1)N1N=NC2CCCCC21 (stereo unspecified)
inactive: dose: 100.0 mg/kg/injection, schedule: Q04DX003 (ip), vehicle: saline with Tween-80 100 % of control | dose: 200.0 mg/kg/injection, schedule: Q04DX003 (ip), vehicle: saline with Tween-80 102 % of control

CCCCCCCCNC(=O)CC
inactive: [2] 103 % of control | dose: 100.0 mg/kg/injection, schedule: Q01DX009 (ip), vehicle: saline 94 % of control | dose: 100.0 mg/kg/injection, schedule: Q04DX003 (ip), vehicle: saline 97 % of control | [3] 100 % of control | dose: 200.0 mg/kg/injection, schedule: Q01DX009 (ip), vehicle: saline 94 % of control | dose: 200.0 mg/kg/injection, schedule: Q04DX003 (ip), vehicle: saline 101 % of control | dose: 400.0 mg/kg/injection, schedule: Q01DX001 (ip), vehicle: saline 100 % of control | dose: 400.0 mg/kg/injection, schedule: Q01DX009 (ip), vehicle: saline 92 % of control | dose: 400.0 mg/kg/injection, schedule: Q04DX003 (ip), vehicle: saline 98 % of control

O=C1CCC2(CCCCC2)N1
inactive: dose: 1.25 mg/kg/injection, schedule: Q01DX009 (ip), vehicle: saline 107 % of control | dose: 2.5 mg/kg/injection, schedule: Q01DX009 (ip), vehicle: saline 107 % of control | dose: 3.13 mg/kg/injection, schedule: Q01DX009 (ip), vehicle: saline 96 % of control | dose: 5.0 mg/kg/injection, schedule: Q01DX009 (ip), vehicle: saline 103 % of control | dose: 6.25 mg/kg/injection, schedule: Q01DX009 (ip), vehicle: saline 101 % of control | dose: 12.5 mg/kg/injection, schedule: Q01DX009 (ip), vehicle: saline 98 % of control and 101 % of control

Brc1ccc(Sc2ccccc2)cc1
inactive: dose: 100.0 mg/kg/injection, schedule: Q01DX009 (ip), vehicle: saline with Tween-80 98 % of control | dose: 200.0 mg/kg/injection, schedule: Q01DX009 (ip), vehicle: saline with Tween-80 93 % of control | dose: 400.0 mg/kg/injection, schedule: Q01DX009 (ip), vehicle: saline with Tween-80 96 % of control

CCSCCCO
inactive: dose: 75.0 mg/kg/injection, schedule: Q04DX003 (ip), vehicle: saline 95 % of control | dose: 150.0 mg/kg/injection, schedule: Q04DX003 (ip), vehicle: saline 97 % of control | dose: 300.0 mg/kg/injection, schedule: Q04DX003 (ip), vehicle: saline 103 % of control

CC12CCC(O)CC1CCC1C2CCC2(C)C(C3=CC(=O)OC3)CCC12 (stereo unspecified)
inactive: dose: 50.0 mg/kg/injection, schedule: Q01DX001 (ip), vehicle: saline 96 % of control | [2] 98 % of control | [3] 98 % of control

CC12CCC(OC3CCCCO3)CC1=CCC1C2CCC2(C)C1CCC21CCNP(=O)(N(CCCl)CCCl)O1 (stereo unspecified)
inactive: dose: 12.5 mg/kg/injection, schedule: Q01DX005 (ip), vehicle: other 100 % of control | dose: 25.0 mg/kg/injection, schedule: Q01DX005 (ip), vehicle: other 91 % of control | dose: 50.0 mg/kg/injection, schedule: Q01DX005 (ip), vehicle: other 95 % of control | dose: 100.0 mg/kg/injection, schedule: Q01DX005 (ip), vehicle: other 95 % of control | dose: 125.0 mg/kg/injection, schedule: Q01DX001 (ip), vehicle: Klucel (hydroxypropylcellulose) (HPC) 95 % of control | dose: 250.0 mg/kg/injection, schedule: Q01DX001 (ip), vehicle: Klucel (hydroxypropylcellulose) (HPC) 96 % of control | dose: 500.0 mg/kg/injection, schedule: Q01DX001 (ip), vehicle: Klucel (hydroxypropylcellulose) (HPC) 101 % of control | dose: 1000.0 mg/kg/injection, schedule: Q01DX001 (ip), vehicle: Klucel (hydroxypropylcellulose) (HPC) 98 % of control

CCOC1=C(C#N)CC2(CC1)c1ccccc1-c1ccccc12
inactive: dose: 100.0 mg/kg/injection, schedule: Q04DX003 (ip), vehicle: Klucel (hydroxypropylcellulose) (HPC) 96 % of control | dose: 200.0 mg/kg/injection, schedule: Q04DX003 (ip), vehicle: Klucel (hydroxypropylcellulose) (HPC) 102 % of control | dose: 400.0 mg/kg/injection, schedule: Q04DX003 (ip), vehicle: Klucel (hydroxypropylcellulose) (HPC) 101 % of control

CC(C)C(=O)Nc1cccc(OC(=O)NC(C)(C)C)c1
inactive: dose: 25.0 mg/kg/injection, schedule: Q01DX001 (ip), vehicle: saline with Tween-80 100 % of control | dose: 50.0 mg/kg/injection, schedule: Q01DX001 (ip), vehicle: saline with Tween-80 91 % of control | [1] 94 % of control
